The text below walks through data of patent US6743929B1, “Sulfonylalkanoylamino hydroxyethylamino sulfonamides useful as retroviral protease inhibitors” (G. D. Searle & Co., priority 1992, dated 2004).

Like-named read-outs stand apart in the source and are kept apart here.

For one data set, the system named is HIV-1. Description: CEM cell assay: HIV inhibition in acutely infected cells (MTT). The class given is cell-based. To be noted: Human immunodeficiency virus 1, CCRF-CEM, 168 h. The protocol: The effectiveness of compounds of the present invention were determined in a CEM cell assay.
(§1) The HIV inhibition assay method of acutely infected cells is an automated tetrazolium based calorimetric assay essentially that reported by Pauwles et al, J. Virol. Methods, 20, 309-321 (1988). Assays were performed in 96-well tissue culture plates. CEM cells, a CD4+ cell line, were grown in RPMI-1640 medium (Gibco) supplemented with a 10% fetal calf serum and were then treated with polybrene (2 μg/ml). An 80 μl volume of medium containing 1×10^4 cells was dispensed into each well of the tissue culture plate. To each well was added a 100 μl volume of tesc compound dissolved in tissue culture medium (or medium without test compound as a control) to achieve the desired final concentration and the cells were incubated at 37° C. for 1 hour. A frozen culture of HIV-1 was diluted in culture medium to a concentration of 5×10^4 TCID50 per ml (TCID50=the dose of virus that infects 50% of cells in tissue culture), and a 20 μL volume of the virus sample (containing 1000 TCID50 of virus) was added to wells containing test compound and to wells containing only medium (infected control cells). Several wells received culture medium without virus (uninfected control cells). Likewise, the intrinsic toxicity of the test compound was determined by adding medium without virus to several wells containing test compound. In summary, the tissue culture plates contained the following experiments:
(§2) In experiments 2 and 4 the final concentrations of test compounds were 1, 10, 100 and 500 μg/ml. Either azidothymidine (AZT) or dideoxyinosine (ddI) was included as a positive drug control. […] DMSO was added to all control wells at an appropriate concentration.
(§3) Following the addition of virus, cells were incubated at 37° C. in a humidified, 5% CO2 atmosphere for 7 days. Test compounds could be added on days 0, 2 and 5 if desired. On day 7, post-infection, the cells in each well were resuspended and a 100 μl sample of each cell suspension was removed for assay. A 20 μL volume of a 5 mg/ml solution of 3-(4,5-dimethylthiazol-2-yl)-2,5-diphenyltetrazolium bromide (MTT) was added to each 100 μL cell suspension, and the cells were incubated for 4 hours at […] in a 5% CO2 environment. […] To each sample was added 100 μl of 10% sodium dodecylsulfate in 0.01 N HCl to lyse the cells, and samples were incubated overnight. The absorbance at 590 nm was determined for each sample using a Molecular Devices microplate reader. Absorbance values for each set of wells is compared to assess viral control infection, uninfected control cell response as well as test compound by cytotoxicity and antiviral efficacy.

For a further data set, the target named is T1, HIV protease (Human immunodeficiency virus type 1 group M subtype B, UniProt P04585).
T1 construct: HIV protease is diluted in the assay buffer to a final enzyme concentration of 12.3 nanomolar, based on a molecular weight of 10,780
In words: HIV protease enzyme assay (fluorogenic substrate 2-aminobenzoyl-Ile-Nle-Phe(p-NO2)-Gln-ArgNH2). The format is biochemical. The source says: The compounds of the present invention are effective HIV protease inhibitors. Utilizing an enzyme assay as described below, the compounds set forth in the examples herein disclosed inhibited the HIV enzyme. The preferred compounds of the present invention and their calculated IC50 (inhibiting concentration 50%, i.e., the concentration at which the inhibitor compound reduces enzyme activity by 50%) values are sh6wn in Table 16. The enzyme method is described below. The substrate is 2-aminobenzoyl-Ile-Nle-Phe(p-NO2)-Gln-ArgNH2. The positive control is MVT-101 (Miller, M. et al, Science, 246, 1149 (1989)] The assay conditions are as follows:
The above described substrate is dissolved in DMSO, then diluted 10 fold in assay buffer. Final substrate concentration in the assay is 80 μM.
HIV protease is diluted in the assay buffer to a final enzyme concentration of 12.3 nanomolar, based on a molecular weight of 10,780.
The final concentration of DMSO is 14% and the final concentration of glycerol is 18%. The test compound is dissolved in DMSO and diluted in DMSO to 10×the test concentration; 10 μl of the enzyme preparation is added, the materials mixed and then the mixture is incubated at ambient temperature for 15 minutes. The enzyme reaction is initiated by the addition of 40 μl of substrate. The increase in fluorescence is monitored at 4 time points (0, 8, 16 and 24 minutes) at ambient temperature. Each assay is carried out in duplicate wells.

For another data set, the system named is CEM cells. Description: CEM cell assay: intrinsic toxicity of test compound in uninfected cells (MTT). The format is cell-based. To be noted: Table 10, CEM cells without virus, 7 days. The protocol:
as §1, §2, §3

The mark [1] stands for this setting: Table 10, CEM cells infected with HIV-1, 7 days, MTT, read-out: EC50.

As to `CCCCN(C[C@@H](O)[C@H](Cc1ccccc1)NC(=O)[C@H](C)CS(C)(=O)=O)S(=O)(=O)c1ccc(OC)cc1` (relative stereo) [Example 8, Propanamide, N-[2-Hydroxy-3-[(butyl)(4-methoxyphenylsulfonyl)amino]-1-(phenylmethyl)propyl]-2-methyl-3-(methylsulfonyl)-,[1S-[1R*(R*),2S*]]-], the EC50 in the data set on HIV-1 (setting [1]) stood at 0.009 µM. Besides, the midpoint of inhibition against HIV protease, the IC50, lay at 0.0031 µM. Moreover, the “TD50 (nM)” value in the data set with CEM cells is >1,000,000 nM.

Regarding `COc1ccc(S(=O)(=O)N(CCC(C)C)C[C@@H](O)[C@H](Cc2ccccc2)NC(=O)[C@H](C)CS(C)(=O)=O)cc1` (relative stereo) [Example 2, Propanamide, N-[2-Hydroxy-3-[(3-methylbutyl)(4-methoxyphenylsulfonyl)aminol-1-(phenylmethyl)propyl]-2-methyl-3-(methylsulfonyl)-[1S-[1R*(R*),2S*]]-], in the data set on HIV-1 (setting [1]), the concentration for a half-maximal effect (EC50) was 0.012 µM. On HIV protease, the IC50 was found to be 0.0032 µM. For the same compound, in the data set on CEM cells, the “TD50 (nM)” value is on record as 90,000 nM.

As to `CCCN(C[C@@H](O)[C@H](Cc1ccccc1)NC(=O)[C@H](C)CS(C)(=O)=O)S(=O)(=O)c1ccccc1` (relative stereo) [Example 5, Propanamide, N-[2-Hydroxy-3-(propyl)(phenylsulfonyl)amino]-1-(phenylmethyl)propyl]-2-methyl-3-(methylsulfonyl)-, [1S-[1R* (R*), 2S*]]-], the concentration for a half-maximal effect (EC50) with HIV-1 (setting [1]) turned out to be 0.025 µM. This compound registered a 50% inhibitory concentration (IC50) on HIV protease of 0.013 µM. Also, the “TD50 (nM)” value with CEM cells is reported as 438,000 nM.

With `COc1ccc(S(=O)(=O)N(CC(C)C)C[C@@H](O)[C@H](Cc2ccccc2)NC(=O)[C@H](C)CS(C)(=O)=O)cc1OC` (relative stereo) [Example 12, Propanamide, N-[2-Hydroxy-3-[(2-methylpropyl)(3.4-dimethoxyphenylsulfonyl)amino]-1-(phenylmethyl)propyl]-2-methyl-3-(methylsulfonyl)-,[1S-[1R*(R*),2S*]]-], the concentration for a half-maximal effect (EC50) with HIV-1 (setting [1]) amounted to 0.087 µM. The same compound came in with an IC50 against HIV protease of 0.038 µM. In addition, the “TD50 (nM)” value in the data set with CEM cells is on record as 77,000 nM.

Regarding `CC(C)CN(C[C@@H](O)[C@H](Cc1ccccc1)NC(=O)[C@H](C)CS(C)(=O)=O)S(=O)(=O)c1ccccc1` (relative stereo) [Example 3, Propanamide, N-[2-Hydroxy-3-[(2-methylpropyl)(phenylsulfonyl)amino]-1-(phenylmethyl)propyl]-2-methyl-3-(methylsulfonyl)-, [1S-[1R*(R*),2S*]]-], the concentration for a half-maximal effect (EC50) in the data set with HIV-1 (setting [1]) came out at 0.01 µM. Further, the IC50 at HIV protease was 0.0032 µM. For the same compound, the “TD50 (nM)” value in the data set with CEM cells is on record as 213,000 nM.

`CC(=O)Nc1ccc(S(=O)(=O)N(CC(C)C)C[C@@H](O)[C@H](Cc2ccccc2)NC(=O)[C@H](C)CS(C)(=O)=O)cc1` (relative stereo) [Example 10, Propanamide, N-[2-Hydroxy-3-[(2-methylpropyl)(4-acetamido)phenylsulfonyl)amino]-1-(phenylmethyl)propyl]-2-methyl-3-(methylsulfonyl)-,[1S-[1R*(R*),2S*]]-] displayed an EC50 in the data set with HIV-1 of 0.223 µM. For the same compound, the “TD50 (nM)” value in the data set on CEM cells is 860,000 nM.

For the compound `COc1ccc(S(=O)(=O)N(CC(C)C)C[C@@H](O)[C@H](Cc2ccccc2)NC(=O)[C@H](C)CS(C)(=O)=O)cc1` (relative stereo) [Example 7, propanamide, N-[2-Hydroxy-3-[(2-methylpropyl)(4-methoxyphenylsulfonyl)amino]-1-(phenylmethyl)propyl]-2-methyl-3-(methylsulfonyl)-,[1S-[1R*(R*),2S*]]-], the EC50 in the data set on HIV-1 (setting [1]) turned out to be 0.002 µM. The same compound had a half-inhibitory concentration (IC50) against HIV protease of 0.0019 µM. In the data set on CEM cells, the “TD50 (nM)” value is >1,000,000 nM.

Take `CCCCN(C[C@@H](O)[C@H](Cc1ccccc1)NC(=O)[C@H](C)CS(C)(=O)=O)S(=O)(=O)c1ccccc1` (relative stereo) [Example 6, Propanamide, N-[2-Hydroxy-3-(butyl)(phenylsulfonyl)amino]-1-(phenylmethyl)propyl]-2-methyl-3-(methylsulfonyl)-. [1S-[1R*(R*),2S*]]-]: the EC50 in the data set on HIV-1 (setting [1]) amounted to 0.029 µM. In addition, on HIV protease, it took 0.0088 µM to reach half-maximal inhibition (IC50). In addition, in the data set with CEM cells, the “TD50 (nM)” value is reported as 133,000 nM.

With `CC(C)CCN(C[C@@H](O)[C@H](Cc1ccccc1)NC(=O)[C@H](C)CS(C)(=O)=O)S(=O)(=O)c1ccc(N)cc1` (relative stereo) [Example 11, Propanamide, N-[2-Hydroxy-3-[(3-methylbutyl)(4-aminophenylsulfonyl)amino]-1-(phenylmethyl)propyl]-2-methyl-3-(methylsulfonyl)-,[1S-[1R*(R*),2S*]]-], the EC50 in the data set with HIV-1 (setting [1]) came out at 0.045 µM. Further, the half-maximal inhibitory concentration (IC50) on HIV protease was determined as 0.0078 µM. In addition, in the data set with CEM cells, the “TD50 (nM)” value was 170,000 nM.

With `CC(C)CCN(C[C@@H](O)[C@H](Cc1ccccc1)NC(=O)[C@H](C)CS(C)(=O)=O)S(=O)(=O)c1ccccc1` (relative stereo) [Example 4, Propanamide, N-[2-Hydroxy-3-[(3-methylbutyl)(phenylsulfonyl)amino]-1-(phenylmethyl)propyl]-2-methyl-3-(methylsulfonyl)-. [1S-[1R*(R*), 2S*]]-], the concentration giving a half-maximal response (EC50) with HIV-1 (setting [1]) was found to be 0.012 µM. Moreover, half-maximal inhibition against HIV protease (IC50) was put at 0.003 µM. Moreover, in the data set on CEM cells, the “TD50 (nM)” value is >1,000,000 nM.

In the case of `CCCN(C[C@@H](O)[C@H](Cc1ccccc1)NC(=O)[C@H](C)CS(C)(=O)=O)S(=O)(=O)c1ccc(OC)cc1` (relative stereo) [Example 9, propanamide, N-[2-Hydroxy-3-[(propyl)(4-methoxyphenylsulfonyl)amino]-1-(phenylmethyl)propyl]-2-methyl-3-(methylsulfonyl)-,[1S-[1R*(R*),2S*]]-], the 50% effective concentration (EC50) with HIV-1 (setting [1]) is 0.016 µM. For the same compound, inhibition against HIV protease was half-maximal at 0.0041 µM (IC50). The “TD50 (nM)” value with CEM cells is listed as >1,000,000 nM.

As usually defined, the EC50 is the concentration needed to bring the measured effect to its halfway point. What is called IC50 is the midpoint of a concentration-inhibition curve. A higher IC50 goes with a need for much substance.
